Data reported in ChEMBL document CHEMBL1201862, “PubChem BioAssay data set” (2004).
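Briefly, cells in 96-well plates were exposed to five compound concentrations for 48 h, and endpoints were estimated by linear interpolation. The concentration for 50% growth inhibition is given as GI50.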 Activity calls are given as the source filed them. No stated cut-off is given here; in the data, active = GI50 up to about 1.1 µM and inactive = higher.

Tests used:
Experiment in all cases: DTP human tumour cell line panel, 48 h
786-0 = tested on: 786-0
A498 = tested on: A498
A549 = tested on: A549
ACHN = tested on: ACHN
BT-549 = tested on: BT-549
EKVX = tested on: EKVX
HL-60 = tested on: HL-60
HT-29 = tested on: HT-29
KM12 = tested on: KM12
LOX IMVI = tested on: LOX IMVI
MDA-MB-231 = tested on: MDA-MB-231
MDA-N = tested on: MDA-N
Malme-3M = tested on: Malme-3M
NCI-H226 = tested on: NCI-H226
NCI/ADR-RES = tested on: NCI/ADR-RES
OVCAR-8 = tested on: OVCAR-8
SF-268 = tested on: SF-268
SF-295 = tested on: SF-295
TK-10 = tested on: TK-10
UACC-62 = tested on: UACC-62

Measured: GI50

O=C(n1c(=O)n(-c2ccc([N+](=O)[O-])cc2)c(=O)n1C(=O)C(Cl)(Cl)Cl)C(Cl)(Cl)Cl
inactive: 786-0 > 100 µM | A498 > 100 µM | A549 > 100 µM | ACHN > 100 µM | BT-549 > 100 µM | EKVX > 100 µM | HL-60 > 100 µM | HT-29 > 100 µM | KM12 > 100 µM | LOX IMVI > 100 µM | MDA-MB-231 > 100 µM | MDA-N > 100 µM | Malme-3M > 100 µM | NCI-H226 > 100 µM | NCI/ADR-RES > 100 µM | OVCAR-8 > 100 µM | SF-268 > 100 µM | SF-295 > 100 µM | TK-10 > 100 µM | UACC-62 > 100 µM

Cc1ccc(N(C=O)c2c([N+](=O)[O-])cc([N+](=O)[O-])c3c2=[N+]([O-])CN=3)cc1
inactive: 786-0 27 µM | A498 39.6 µM | A549 > 100 µM | ACHN 24.8 µM | BT-549 18.7 µM | EKVX > 100 µM | HL-60 23 µM | HT-29 49 µM | KM12 43.8 µM | LOX IMVI 21.9 µM | MDA-MB-231 18.5 µM | MDA-N 27.5 µM | Malme-3M 20.3 µM | NCI-H226 > 100 µM | NCI/ADR-RES 30.7 µM | OVCAR-8 28.5 µM | SF-268 36 µM | SF-295 65.5 µM | TK-10 35.9 µM | UACC-62 11.9 µM

C=CCCC1CCCCNC1=S (stereo not given)
inactive: 786-0 > 10 µM | A498 > 10 µM | A549 > 10 µM | ACHN > 10 µM | BT-549 > 10 µM | EKVX > 10 µM | HL-60 > 10 µM | HT-29 > 10 µM | KM12 > 10 µM | LOX IMVI > 10 µM | MDA-MB-231 > 10 µM | MDA-N > 10 µM | Malme-3M > 10 µM | NCI-H226 > 10 µM | NCI/ADR-RES > 10 µM | OVCAR-8 > 10 µM | SF-268 > 10 µM | SF-295 > 10 µM | TK-10 > 10 µM | UACC-62 > 10 µM

N#CC(=N)c1ncn(-c2ccc(N)cc2)c1N
inactive: 786-0 > 100 µM | A498 > 100 µM | A549 > 100 µM | ACHN > 100 µM | BT-549 > 100 µM | EKVX > 100 µM | HL-60 > 100 µM | HT-29 > 100 µM | KM12 > 100 µM | LOX IMVI > 100 µM | MDA-MB-231 > 100 µM | MDA-N > 100 µM | Malme-3M > 100 µM | NCI-H226 > 100 µM | NCI/ADR-RES > 100 µM | OVCAR-8 > 100 µM | SF-268 > 100 µM | SF-295 > 100 µM | TK-10 > 100 µM | UACC-62 > 100 µM

CO[C@@H](c1ccccc1)[C@H](O)[C@@](O)(c1ccccc1)P(=O)(OC)OC
inactive: 786-0 > 100 µM | A498 > 100 µM | A549 > 100 µM | ACHN > 100 µM | BT-549 > 100 µM | EKVX > 100 µM | HL-60 > 100 µM | HT-29 > 100 µM | KM12 28.4 µM | LOX IMVI > 100 µM | MDA-MB-231 > 100 µM | MDA-N > 100 µM | Malme-3M 36.6 µM | NCI-H226 > 100 µM | NCI/ADR-RES > 100 µM | OVCAR-8 > 100 µM | SF-268 > 100 µM | SF-295 > 100 µM | TK-10 > 100 µM | UACC-62 > 100 µM
